Measurements from ChEMBL document CHEMBL4052756, “α-Pyrone derivatives with cytotoxic activities, from the endophytic fungus Phoma sp. YN02-P-3” (Bioorg Med Chem Lett, 2017).

Legend:
Type in all cases: functional, cell-based
HCT-116 = assay: Cytotoxic activity against human HCT116 cells
PC-3 = assay: Cytotoxic activity against human PC3 cells
HL-60 = assay: Cytotoxic activity against human HL60 cells

SMILES | IC50 (HCT-116) | IC50 (PC-3) | IC50 (HL-60)
COc1c(CO)c(/C=C/C(=O)O)oc(=O)c1CO | > 50 µM | > 50 µM | > 50 µM
COC(=O)/C=C/c1oc(=O)c(COC(C)=O)c(OC)c1CO | 2.31 µM | 1.09 µM | 0.65 µM
COC(=O)/C=C/c1oc(=O)c(CO)c(OC)c1COC(C)=O | 9.84 µM | 5.9 µM | 1.04 µM
COc1c(C)c(/C=C/C(=O)O)oc(=O)c1CO | > 50 µM | > 50 µM | > 50 µM
COC(=O)C1C(c2oc(=O)c(COC(C)=O)c(OC)c2COC(C)=O)C(C(=O)OC)C1c1oc(=O)c(COC(C)=O)c(OC)c1COC(C)=O (stereo not drawn) | – | – | 4.56 µM
COC(=O)/C=C/c1oc(=O)c(COC(C)=O)c(OC)c1COC(C)=O | 1.32 µM | 0.98 µM | 0.52 µM
O=c1[nH]cc(F)c(=O)[nH]1 [FLUOROURACIL] | 17 µM | 1.6 µM | 2.8 µM
COC(=O)C1C(c2oc(=O)c(CO)c(OC)c2CO)C(C(=O)OC)C1c1oc(=O)c(CO)c(OC)c1CO (stereo not drawn) | > 50 µM | > 50 µM | > 50 µM
COc1c(C)c(/C=C/C(=O)O)oc(=O)c1C | > 50 µM | > 50 µM | > 50 µM
COC(=O)/C=C/c1oc(=O)c(CO)c(OC)c1CO | > 50 µM | > 50 µM | > 50 µM
